# In article PMC9375819 (EJNMMI Research, 2022):
# Tests used:
# mTOR = test system: mTOR; parameters: method as in earlier work; conditions: read-out: Cellular IC50 by catalytic inhibition: mTOR; cited from earlier work
# ATM [1] = target: T1, ATM (Homo sapiens, UniProt Q13315); assay: Blocking of [18F]1 cell-associated activity by non-radioactive ATM inhibitors; format: cell-based; conditions: for effect on [18F]1 cell-associated activity at high molar excess: 1000 nM inhibitor, compared to DMSO control; for effect on [18F]1 cell-associated activity at lower inhibitor concentrations: 0.1–10 nM inhibitor
# T1 construct: endogenous in cells; host or cells: H1299 shGFP and shATM cells
# Procedure: (§1) H1299 non-small cell lung cancer cells, either wild type or stably transfected with short hairpin RNA for ATM (shATM) or GFP (shGFP, as a control) expression knockdown, were kindly gifted by Dr Anderson Ryan at the University of Oxford. All cells were cultured at 37 °C and 5% CO2 in Dulbecco’s modified Eagle medium (DMEM) supplemented with 10% foetal bovine serum (FBS) (Gibco, USA), 2 mM L-glutamine, 100 units/mL penicillin, and 100 µg/mL streptomycin (PSG) (Sigma-Aldrich); knockdown cell lines were additionally supplemented with 0.5 μg/mL puromycin dihydrochloride (Merck Life Science, UK). Cells were originally purchased from ATCC and were authenticated by the provider and by STR profiling. Cells were tested regularly for the absence of mycoplasma contamination and were cultured for a maximum of 20 passages after resuscitation from liquid nitrogen storage.
# PI3K = test system: PI3K; parameters: method as in earlier work; conditions: read-out: Cellular IC50 by catalytic inhibition: PI3K; cited from earlier work
# ATM [2] = target: T1, ATM; assay: Western blot of pATM, pKAP1 and pCHK2 in irradiated H1299 shGFP cells; format: cell-based; conditions: irradiated (4 Gy) H1299 shGFP knockdown cells, inhibitor 1 h before irradiation, relative to DMSO control
# Procedure: as §1
# murine ATM = target: T2, murine ATM (Mus musculus, UniProt Q62388); assay: Western blot of ATM inhibition in CT26 murine colorectal cancer cells; format: cell-based
# T2 construct: endogenous in cells; host or cells: CT26 murine colorectal cancer cells
# Procedure: Western blot analysis was performed to compare the total ATM expression between cell models, in addition to expression of phospho-ATM^S1981 (pATM), phospho-KAP1^S824 (pKAP1), and phospho-CHK2^T68 (pCHK2) expression to assess the effect of irradiation and ATM inhibition on ATM catalytic activity. Cells were irradiated (4 Gy; 0.75 Gy/min) or sham-irradiated and incubated at 37 °C for 1 h before harvesting cells for lysis and blotting (full details in supporting information). Where required, inhibitors were added to cells at the stated concentration from DMSO stock solutions (reaching no greater than 10% DMSO final concentration) with incubation for 1 h prior to irradiation/sham-irradiation. The following antibodies and dilutions were used in this work: phospho-ATM S1981 (ab81292, 1:5000, Abcam); phospho-KAP1 S824 (ab133440, 1:10,000, Abcam); phospho-CHK2 T68 (#2661, 1:1000, Cell Signalling Technologies); Total ATM (ab32420, clone [Y170], 1:500, Abcam); Total KAP1 (ab10483, 1:1000, Abcam); Total CHK2 (05-649, 1:1000, Merck Millipore); HRP-conjugated Tubulin (ab197740, clone [YL1/2], 1:4000, Abcam); HRP-conjugated β-Actin (clone 13E5, 1:1000, Cell Signalling Technologies), HRP-conjugated anti-rabbit secondary (HAF008, 1:1000, R&D Systems); and HRP-conjugated anti-mouse secondary (HAF007, 1:1000, R&D Systems). […]
# ATM [3] = test system: ATM; parameters: method as in earlier work; conditions: cited from earlier work
# ATR = test system: ATR; parameters: method as in earlier work; conditions: read-out: Cellular IC50 by catalytic inhibition: ATR; cited from earlier work
# [4] = PET/CT imaging and ex vivo biodistribution in wild type and ATM-null mice; parameters: species or system C57BL/6 mice; conditions: 1 h after intravenous administration
# Procedure: (§2) All animal procedures were performed in accordance with the UK Animals (Scientific Procedures) Act 1986 and with local ethical committee approval. Mice were bred from parent C57BL/6 J mice heterozygous for a targeted mutation in the ATM^tm1Awbl allele to produce ATM-null (ATM^−/−) mice (Jackson laboratory). Wild-type (ATM^+/+) mice from this breeding program were used as controls. In a separate study, tumour xenografts were created in BALB/c nu/nu mice (8 weeks old) via subcutaneous injection of H1299 wild type, shATM knockdown, or shGFP knockdown cells in a 1:1 PBS/Matrigel® formulation on both sides of the hind flank. Total tumour volumes were allowed to reach an average of 600 mm^3 (range 330–930 mm^3) before imaging and/or biodistribution studies (approx. 6–10 weeks after inoculation).
# Animals were anaesthetised by 4% isoflurane gas (0.5 L/min O2) and maintained at approx. 2% and 37 °C throughout the imaging session. C57BL/6 ATM^+/+ and ATM^−/− mice were administered [^18F]1 (83 ng; 0.5–4.6 MBq, molar activity range of 3.2–24.2 GBq/μmol with a standard deviation of 6.5 GBq/μmol) via intravenous bolus injection in the lateral tail vein. […] PET images were each registered to CT, attenuation corrected, calibrated by imaging a phantom containing a fluorine-18 standard solution, and analysed using PMod software package (version 3.807, PMOD Technologies).
# [5] = test system: H1299 shATM and shGFP cells; assay: Cell retention of [18F]1; format: cell-based, human; conditions: after 1 h incubation with tracer, over 2 h
# Procedure: as §1
# Retention assays followed the same procedure with a 1-h incubation of cell with [^18F]1, but after culture medium was aspirated and cells washed with PBS (2 × 500 μL), it was replaced (500 μL DMEM) and cells incubated at 37 °C and 5% CO2 for the desired time. The amount of ^18F-activity retained in cells was then determined as above.
# [6] = Ex vivo biodistribution, uptake in H1299 tumour xenografts; parameters: species or system BALB/c nu/nu mice
# Procedure: as §2
# Animals were anaesthetised by 4% isoflurane gas (0.5 L/min O2) and maintained at approx. 2% and 37 °C throughout the imaging session. C57BL/6 ATM^+/+ and ATM^−/− mice were administered [^18F]1 (83 ng; 0.5–4.6 MBq, molar activity range of 3.2–24.2 GBq/μmol with a standard deviation of 6.5 GBq/μmol) via intravenous bolus injection in the lateral tail vein. Xenograft-bearing BALB/c nu/nu mice were administered [^18F]1 (0.5 μg; 0.7–9.6 MBq, molar activity range of 0.62–9.8 GBq/μmol with a standard deviation of 3.0 GBq/μmol) via intravenous bolus injection to the lateral tail vein. PET/CT scanning was completed using a VECTor4CT scanner (MILabs, Utrecht, the Netherlands) for 1 h and was immediately followed by culling, dissection, and gamma counting of selected organs. Tumour tissue was immediately flash frozen in liquid nitrogen and mounted in OCT before producing 10 μm thick sections for autoradiography and H&E staining. Alternatively, frozen tumour tissue was macerated and lysed in RIPA buffer for western blot analysis (full details available in the supporting information). Reconstruction of both CT and PET images was performed with the MILabs reconstruction analysis using a γ-ray energy window of 467–571 keV (background weight 2.5%), 0.8 mm^3 voxel size, 8 subsets, and 5 iterations using the manufacturer’s SROSEM reconstruction type. PET images were each registered to CT, attenuation corrected, calibrated by imaging a phantom containing a fluorine-18 standard solution, and analysed using PMod software package (version 3.807, PMOD Technologies).
# [7] = test system: H1299 shATM and shGFP cells; assay: Cell uptake of [18F]1; format: cell-based, human; conditions: irradiated 4 Gy or sham-irradiated, 37 °C
# Procedure: as §1
# To assess cellular uptake of [^18F]1, aliquots of H1299 shATM or shGFP cells were plated with 1 × 10^5 cells per well in 24-well plates in 500 μL complete growth medium and incubated overnight to allow cells to adhere. Cell culture medium was removed, cells washed with PBS and media replaced with DMEM (no additives). […] The amount of ^18F-activity associated with each fraction was determined using a Wizard2 Automatic Gamma Counter (PerkinElmer).
# [8] = parameters: method as in PMID 29938225, PMID 33123736; conditions: phase I clinical trial; cited from earlier work
# [9] = BALB/c nu/nu mice, intravenous, 1 h
# T1 sequence (Q13315 whole entry): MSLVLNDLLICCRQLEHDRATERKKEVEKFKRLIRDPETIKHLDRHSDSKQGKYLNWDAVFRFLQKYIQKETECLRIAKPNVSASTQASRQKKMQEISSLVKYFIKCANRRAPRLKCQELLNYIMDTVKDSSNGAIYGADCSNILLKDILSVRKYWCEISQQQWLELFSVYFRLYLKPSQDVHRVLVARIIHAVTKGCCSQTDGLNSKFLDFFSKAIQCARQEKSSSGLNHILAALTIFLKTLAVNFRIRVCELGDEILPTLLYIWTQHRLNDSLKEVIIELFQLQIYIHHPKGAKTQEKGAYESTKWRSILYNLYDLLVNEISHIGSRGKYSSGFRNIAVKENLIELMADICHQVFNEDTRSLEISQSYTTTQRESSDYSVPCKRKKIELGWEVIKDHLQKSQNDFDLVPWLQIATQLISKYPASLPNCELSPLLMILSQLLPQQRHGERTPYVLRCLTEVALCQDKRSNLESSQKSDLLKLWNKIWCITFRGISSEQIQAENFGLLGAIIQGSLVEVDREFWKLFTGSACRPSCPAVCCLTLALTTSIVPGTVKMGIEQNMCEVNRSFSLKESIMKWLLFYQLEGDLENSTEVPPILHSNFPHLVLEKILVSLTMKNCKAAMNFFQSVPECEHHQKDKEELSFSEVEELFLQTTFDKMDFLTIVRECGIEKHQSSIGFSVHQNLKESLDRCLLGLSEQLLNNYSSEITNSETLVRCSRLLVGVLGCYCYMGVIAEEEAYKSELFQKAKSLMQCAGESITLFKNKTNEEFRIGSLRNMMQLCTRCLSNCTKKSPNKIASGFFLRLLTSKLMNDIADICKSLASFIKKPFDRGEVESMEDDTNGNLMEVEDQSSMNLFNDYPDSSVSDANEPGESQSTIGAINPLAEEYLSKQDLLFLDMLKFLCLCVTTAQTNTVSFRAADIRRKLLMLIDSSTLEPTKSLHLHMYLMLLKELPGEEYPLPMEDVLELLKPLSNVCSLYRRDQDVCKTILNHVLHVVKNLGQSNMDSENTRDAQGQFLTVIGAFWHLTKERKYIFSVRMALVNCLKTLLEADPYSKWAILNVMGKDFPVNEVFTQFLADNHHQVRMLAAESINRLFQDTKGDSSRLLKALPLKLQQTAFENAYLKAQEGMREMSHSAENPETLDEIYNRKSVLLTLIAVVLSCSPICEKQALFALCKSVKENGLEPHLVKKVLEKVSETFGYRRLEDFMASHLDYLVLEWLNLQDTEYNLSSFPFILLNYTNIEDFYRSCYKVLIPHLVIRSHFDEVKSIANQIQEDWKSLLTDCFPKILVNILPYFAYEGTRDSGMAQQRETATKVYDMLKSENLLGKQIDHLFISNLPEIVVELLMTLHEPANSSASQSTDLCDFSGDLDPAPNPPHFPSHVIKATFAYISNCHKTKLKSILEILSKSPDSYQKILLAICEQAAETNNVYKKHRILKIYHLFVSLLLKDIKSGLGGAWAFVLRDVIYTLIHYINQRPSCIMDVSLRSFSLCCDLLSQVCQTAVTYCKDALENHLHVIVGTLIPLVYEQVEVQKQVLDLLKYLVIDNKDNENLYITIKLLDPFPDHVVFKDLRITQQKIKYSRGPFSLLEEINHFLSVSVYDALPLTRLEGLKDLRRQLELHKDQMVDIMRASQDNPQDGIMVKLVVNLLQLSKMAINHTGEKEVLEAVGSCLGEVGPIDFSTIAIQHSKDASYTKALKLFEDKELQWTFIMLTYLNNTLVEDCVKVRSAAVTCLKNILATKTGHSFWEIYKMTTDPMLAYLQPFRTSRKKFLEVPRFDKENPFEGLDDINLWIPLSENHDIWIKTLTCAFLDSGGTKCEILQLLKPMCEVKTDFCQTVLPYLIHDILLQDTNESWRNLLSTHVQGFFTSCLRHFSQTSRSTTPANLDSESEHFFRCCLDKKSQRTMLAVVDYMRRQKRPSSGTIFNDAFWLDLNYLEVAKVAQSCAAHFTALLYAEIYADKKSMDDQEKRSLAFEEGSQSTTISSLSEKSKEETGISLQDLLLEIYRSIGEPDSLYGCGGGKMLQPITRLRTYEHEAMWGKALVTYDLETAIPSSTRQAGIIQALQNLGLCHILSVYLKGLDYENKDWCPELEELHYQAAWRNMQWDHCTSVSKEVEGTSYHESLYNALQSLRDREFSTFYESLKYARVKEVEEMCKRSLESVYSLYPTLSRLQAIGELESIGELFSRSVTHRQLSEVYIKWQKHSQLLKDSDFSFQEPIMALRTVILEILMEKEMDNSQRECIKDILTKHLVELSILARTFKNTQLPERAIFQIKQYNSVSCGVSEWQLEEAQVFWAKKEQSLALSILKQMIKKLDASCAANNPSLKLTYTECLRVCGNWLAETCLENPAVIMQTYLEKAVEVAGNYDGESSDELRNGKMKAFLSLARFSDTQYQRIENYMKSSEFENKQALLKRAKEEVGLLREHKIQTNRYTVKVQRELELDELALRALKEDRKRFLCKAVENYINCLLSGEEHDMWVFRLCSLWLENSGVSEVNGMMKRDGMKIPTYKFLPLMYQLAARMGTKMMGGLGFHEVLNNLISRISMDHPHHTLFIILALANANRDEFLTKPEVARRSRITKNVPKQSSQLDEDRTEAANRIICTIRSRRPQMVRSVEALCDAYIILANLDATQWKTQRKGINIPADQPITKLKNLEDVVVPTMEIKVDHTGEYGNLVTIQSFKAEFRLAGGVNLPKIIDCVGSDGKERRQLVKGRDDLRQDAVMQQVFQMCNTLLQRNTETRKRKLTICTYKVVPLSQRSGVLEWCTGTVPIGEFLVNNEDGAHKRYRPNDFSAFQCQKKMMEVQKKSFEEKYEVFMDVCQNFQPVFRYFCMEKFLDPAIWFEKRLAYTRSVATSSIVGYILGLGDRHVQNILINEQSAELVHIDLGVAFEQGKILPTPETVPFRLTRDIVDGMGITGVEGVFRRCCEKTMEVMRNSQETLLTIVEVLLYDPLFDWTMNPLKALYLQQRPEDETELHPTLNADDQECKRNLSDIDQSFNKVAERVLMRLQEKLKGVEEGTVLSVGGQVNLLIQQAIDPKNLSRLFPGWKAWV
smiles,measurement,setting,value
CC(C)n1c(=O)n(C)c2cnc3ccc(-c4ccc(OCCCN5CCCCC5)nc4F)cc3c21 [compound 1],IC50,mTOR,> 5.19 µM
same,effect on [18F]1 cell-associated activity at high molar excess,ATM [1],increase in cell-associated activity
same,effect on [18F]1 cell-associated activity at lower inhibitor concentrations,ATM [1]; H1299 shATM and shGFP cells,initial blocking effect
same,IC50,PI3K,5.75 µM
same,"pATM expression and downstream targets pKAP1 and pCHK2, western blot",ATM [2],decrease in pATM expression
same,"murine ATM inhibition and reduction of downstream target pKAP1, western blot",murine ATM,murine ATM inhibition
same,IC50,ATM [3]; read-out: Cellular IC50 by catalytic inhibition: ATM,< 0.00043 µM
same,IC50 value of ATM inhibition,ATM [3]; reported value,sub-nM
same,IC50,ATR,> 30 µM
CC(C)n1c(=O)n(C)c2cnc3ccc(-c4ccc(OCCCN5CCCCC5)nc4[N+](=O)[O-])cc3c21 [compound 2],"pATM expression and downstream targets pKAP1 and pCHK2, western blot",ATM [2],decrease in pATM expression
CC(C)n1c(=O)n(C)c2cnc3cc(F)c(-c4ccc(OCCCN5CCCCC5)nc4)cc3c21 [AZD1390],effect on [18F]1 cell-associated activity at high molar excess,ATM [1],increase in cell-associated activity
same,effect on [18F]1 cell-associated activity at lower inhibitor concentrations,ATM [1]; H1299 shATM and shGFP cells,initial blocking effect
same,"pATM expression and downstream targets pKAP1 and pCHK2, western blot",ATM [2],decrease in pATM expression
"C[C@@H]1CN(CC(=O)Nc2ccc3c(c2)Cc2cccc(-c4cc(=O)cc(N5CCOCC5)o4)c2S3)C[C@H](C)O1 [KU60019, reference compound]",blocking of [18F]1 cell-associated activity,"ATM [1]; increasing concentrations of blocking agent, H1299 shATM and shGFP cells, 1 h tracer incubation",significant blocking
same,"pATM expression and downstream targets pKAP1 and pCHK2, western blot",ATM [2],decrease in pATM expression
CC(C)n1c(=O)n(C)c2cnc3ccc(-c4ccc(OCCCN5CCCCC5)nc4[18F])cc3c21 [[^18F]1],difference in uptake between wild type and ATM-null mice,[4]; C57BL/6 mice,Significant differences in uptake between the two mice were only observed in the kidneys and liver
same,clearance route,[4]; wild type and ATM-null C57BL/6 mice,hepatobiliary clearance
same,decrease in cell-associated activity (retention),[5],approximately 50%
same,uptake in H1299 tumour xenografts (shATM),[6]; [9],0.35 ± 0.10 %ID/g
same,uptake in H1299 tumour xenografts (shGFP),[6]; [9],0.35 ± 0.14 %ID/g
same,uptake in H1299 tumour xenografts (wild type),[6]; [9],0.38 ± 0.12 %ID/g
same,"tumour uptake, range","[6]; after 1 h, all tumour types",0.13–0.90 %ID/g
same,clearance route,[6]; xenograft-bearing BALB/c nu/nu mice,hepatobiliary clearance
same,cell-associated activity (uptake),[7],increase in cell-associated activity over 1 h followed by a plateau
CC(C)n1c(=O)n([11CH3])c2cnc3cc(F)c(-c4ccc(OCCCN5CCCCC5)nc4)cc3c21 [[^11C]AZD1390],blood–brain barrier penetration by PET,[8],ability to cross the blood–brain barrier
